Test results as given in ChEMBL document CHEMBL5247612, “Medicinal chemistry strategies targeting PRMT5 for cancer therapy” (Eur J Med Chem, 2022).
Blank lines part the entries; values can stand above or below the molecule they belong to.

What was measured:
[1] = target: T1, Protein arginine N-methyltransferase 5 (Homo sapiens, UniProt O14744); test: Inhibition of PRMT5 human PRMT5 using [3H]-SAM as substrate by radioactive methylation assay
A-375 [2] = test: Antiproliferation activity against human A-375 cells assessed as cell growth inhibition; type: functional, cell-based
A-375 [3] = test: Anticancer activity against human A-375 cells in xenograft model assessed as tumor growth inhibition at 10 mg/kg, qd on a 4 day-on/3 day-off schedule for 26 days relative to control; type: functional; details: A-375, 624 h, time 26 day, read-out: TGI
[4] = target: T2, Protein arginine N-methyltransferase 1 (Homo sapiens, UniProt Q99873); test: Inhibition of human PRMT1 using H4R3 S1ac and [3H]-SAM as substrate by AlphaLISA assay
[5] = target: T1, Protein arginine N-methyltransferase 5; test: Inhibition of human PRMT5 using H4R3 S1ac and [3H]-SAM as substrate by AlphaLISA assay
Z-138 = test: Antiproliferative activity against human Z138 cells assessed as cell growth inhibition measured every 4 days upto 8 days by Cell Titer-Glo Luminescent Cell Viability kit method; type: functional, cell-based
[6] = Inhibition of Trypanosoma brucei PRMT7 by fluorescence-based SAHH-coupled assay
[7] = target: T2, Protein arginine N-methyltransferase 1; test: Inhibition of human PRMT1 by fluorescence-based SAHH-coupled assay
[8] = target: T1, Protein arginine N-methyltransferase 5; test: Inhibition of PRMT5 (unknown origin) by AlphaLISA assay
[9] = target: T1, Protein arginine N-methyltransferase 5; test: Inhibition of PRMT5 (unknown origin) assessed as enzymatic activity by AlphaLISA assay
[10] = target: T1, Protein arginine N-methyltransferase 5; test: Inhibition of PRMT5 human PRMT5 using Biotinylated H4 derived peptide and [3H]-SAM as substrate by radioactive methylation assay
[11] = target: T1, Protein arginine N-methyltransferase 5; test: Inhibition of human PRMT5 by fluorescence-based SAHH-coupled assay
[12] = target: T3, Histone-arginine methyltransferase CARM1 (Homo sapiens, UniProt Q86X55); test: Inhibition of human PRMT4 by fluorescence-based SAHH-coupled assay
T3 sequence (Q86X55 whole entry): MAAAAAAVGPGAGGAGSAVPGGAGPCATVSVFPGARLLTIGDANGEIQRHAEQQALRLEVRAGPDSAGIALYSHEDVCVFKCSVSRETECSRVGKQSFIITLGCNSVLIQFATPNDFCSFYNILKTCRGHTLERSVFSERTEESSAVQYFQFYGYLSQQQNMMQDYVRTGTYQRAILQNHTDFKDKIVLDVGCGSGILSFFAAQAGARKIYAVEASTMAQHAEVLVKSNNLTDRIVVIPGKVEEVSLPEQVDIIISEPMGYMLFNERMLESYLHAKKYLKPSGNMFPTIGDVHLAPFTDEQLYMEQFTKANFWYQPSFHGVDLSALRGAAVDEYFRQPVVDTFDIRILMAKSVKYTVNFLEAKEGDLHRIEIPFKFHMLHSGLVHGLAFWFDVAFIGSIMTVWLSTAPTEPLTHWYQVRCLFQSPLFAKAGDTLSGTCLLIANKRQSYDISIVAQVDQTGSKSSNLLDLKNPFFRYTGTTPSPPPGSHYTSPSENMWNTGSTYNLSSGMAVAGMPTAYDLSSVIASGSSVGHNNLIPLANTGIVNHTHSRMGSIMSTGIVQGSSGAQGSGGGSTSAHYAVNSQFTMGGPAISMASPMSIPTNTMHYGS

T2 sequence (Q99873 whole entry): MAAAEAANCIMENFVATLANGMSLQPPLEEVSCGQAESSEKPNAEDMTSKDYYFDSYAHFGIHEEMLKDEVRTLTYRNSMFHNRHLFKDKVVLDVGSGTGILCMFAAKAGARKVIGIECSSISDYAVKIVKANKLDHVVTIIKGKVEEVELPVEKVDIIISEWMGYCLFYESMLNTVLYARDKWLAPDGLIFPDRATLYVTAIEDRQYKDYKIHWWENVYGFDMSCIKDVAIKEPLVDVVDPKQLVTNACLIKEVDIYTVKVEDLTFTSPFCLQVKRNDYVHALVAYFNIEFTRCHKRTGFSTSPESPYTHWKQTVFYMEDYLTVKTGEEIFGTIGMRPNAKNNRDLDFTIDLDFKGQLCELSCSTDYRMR
T1 sequence (O14744 whole entry): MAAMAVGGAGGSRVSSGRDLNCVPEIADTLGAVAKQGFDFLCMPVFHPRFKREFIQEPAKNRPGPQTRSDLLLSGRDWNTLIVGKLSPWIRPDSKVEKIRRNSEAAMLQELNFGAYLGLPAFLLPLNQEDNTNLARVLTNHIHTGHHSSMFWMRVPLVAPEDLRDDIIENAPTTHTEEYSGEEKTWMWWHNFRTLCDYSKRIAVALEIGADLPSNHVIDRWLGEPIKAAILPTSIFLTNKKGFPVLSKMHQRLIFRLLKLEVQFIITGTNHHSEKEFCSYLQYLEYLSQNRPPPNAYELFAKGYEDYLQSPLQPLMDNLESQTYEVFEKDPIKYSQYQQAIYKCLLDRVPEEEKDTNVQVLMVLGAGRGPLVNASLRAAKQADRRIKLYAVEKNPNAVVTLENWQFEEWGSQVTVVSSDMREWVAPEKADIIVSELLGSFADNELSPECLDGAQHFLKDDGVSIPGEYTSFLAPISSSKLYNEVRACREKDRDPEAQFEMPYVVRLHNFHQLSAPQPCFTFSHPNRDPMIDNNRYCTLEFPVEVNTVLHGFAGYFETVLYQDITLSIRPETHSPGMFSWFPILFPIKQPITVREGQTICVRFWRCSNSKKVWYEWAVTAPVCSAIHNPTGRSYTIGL

IC50 [1]: 34 µM
SMILES: Nc1cccc(-c2cn(CC(O)CN3CCc4ccccc4C3)nn2)c1 (centres undefined)

IC50 (A-375 [2]): 44 nM
SMILES: C[C@@](O)(c1ccc(Cl)cc1)[C@H]1O[C@@H](n2ccc3c(N)ncnc32)[C@H](O)[C@@H]1O

SMILES: Nc1ncnc2c1ccn2[C@@H]1O[C@H]([C@H](O)c2ccccc2)[C@@H](O)[C@H]1O
IC50 (A-375 [2]): 31.5 nM

IC50 (A-375 [2]): 10.8 nM
SMILES: Nc1ncnc2c1ccn2[C@@H]1O[C@H]([C@H](O)c2ccc(Cl)cc2)[C@@H](O)[C@H]1O
inhibition in vivo at 10 mg/kg (A-375 [3]): 64%

IC50 [4]: 10 µM
IC50 [5]: 0.77 µM
SMILES: Cc1ccc(C2=NC(=O)/C(=C/c3ccc(O)c(O)c3)S2)cc1

IC50 [1]: 0.72 µM
SMILES: OC(CN1CCc2ccccc2C1)Cn1cc(-c2cccc(NC3CCC3)c2)nn1 (centres undefined)
IC50 (Z-138): 2600 nM

IC50 [5]: 13.9 µM
SMILES: COc1cc(Cl)cc(/C=C2\SC(c3ccc(C)cc3)=NC2=O)c1O

IC50 [7]: 3 µM
SMILES: C[C@@H]1[C@H](O)[C@@H](CSCCCNC(=N)NCCCC[C@@H](N)C(N)=O)O[C@H]1n1cnc2c(N)ncnc21
IC50 [6]: 20000 nM

IC50 [8]: 8.1 µM
SMILES: COc1cccc(/C=N/c2ccc(O)c(-c3nc4cc(C)ccc4o3)c2)c1O

IC50 [9]: 34.1 µM
SMILES: COC(=O)c1ccccc1NC(=O)CCN1CCc2ccccc2C1

IC50 [1]: 2.4 µM
SMILES: OC(CN1CCc2ccccc2C1)Cn1cc(-c2cccc(NC3CCOCC3)c2)nn1 (centres undefined)

IC50 [8]: 27 µM
SMILES: COc1ccc(OC)c(NC(=O)CSc2nnc3c4ccccc4c4ccccc4c3n2)c1

IC50 [7]: 1.7 µM
SMILES: N=C(N)NCCC[C@H](N)C(=O)NCC(=O)N[C@H](CCNC(=N)NCSC[C@H]1O[C@@H](n2cnc3c(N)ncnc32)[C@H](O)[C@@H]1O)C(N)=O
IC50 [6]: 590 nM

IC50 [10]: 5700 nM
SMILES: CCN(CC)CCNC1CCCc2c1[nH]c1ccc(C)cc21 (centres undefined)

IC50 [10]: 330 nM
SMILES: COC(=O)c1ccccc1NC(=O)CSc1nc2ccc(CO)cc2[nH]1

IC50 [5]: 6.6 µM
SMILES: COc1cc(Br)cc(/C=C2\SC(c3ccc(C)cc3)=NC2=O)c1O

IC50 [11]: 0.42 nM
IC50 [12]: 2.8 nM
IC50 [7]: 5.9 µM
SMILES: N=C(N)NCCC[C@H](N)C(=O)NCC(=O)N[C@H](CCNC(=N)NCCSC[C@H]1O[C@@H](n2cnc3c(N)ncnc32)[C@H](O)[C@@H]1O)C(N)=O
IC50 [6]: 830 nM

IC50 [10]: 1700 nM
SMILES: Cc1ccc2[nH]c3c(c2c1)CCCC3NCCCOc1ccc(F)cc1 (centres undefined)

IC50 [8]: 6.5 µM
SMILES: CCOC(=O)c1c(NC(=O)CSc2nnc3c4ccccc4n(CCc4ccccc4)c3n2)sc2c1CCN(C)C2

IC50 [8]: 60 µM
SMILES: CCc1ccc2oc(-c3cc(/N=C/c4cccc(C)c4O)ccc3O)nc2c1

IC50 [1]: 5.5 µM
SMILES: O=[N+]([O-])c1cccc(-c2cn(CC(O)CN3CCc4ccccc4C3)nn2)c1 (centres undefined)
